Measurements reported in patent publication US8729014B2, “Specific HCV NS3 protease inhibitors” (RFS Pharma, LLC, priority 2010, dated 2014).

Legend:
[1] = Cytotoxicity assay in CEM cells; format: cell-based, human; details: human, CEM (human lymphoblastoid) cells
Procedure: (§1) The toxicity of the compounds was assessed in Vero, human PBM, CEM (human lymphoblastoid), MT-2, and HepG2 cells, as described previously (see Schinazi R. F., Sommadossi J.-P., Saalmann V., Cannon D. L., Xie M.-Y., Hart G. C., Smith G. A. & Hahn E. F. Antimicrob. Agents Chemother. 1990, 34, 1061-67). Cycloheximide was included as positive cytotoxic control, and untreated cells exposed to solvent were included as negative controls. The cytotoxicity IC50 was obtained from the concentration-response curve using the median effective method described previously (see Chou T.-C. & Talalay P. Adv. Enzyme Regul. 1984, 22, 27-55; Belen'kii M. S. & Schinazi R. F. Antiviral Res. 1994, 25,1-11).

[2] = tested on: CEM (human lymphoblastoid) cells; test: Cytotoxicity assay in CEM cells; format: cell-based; details: Homo sapiens, CCRF-CEM, 100 μM
Procedure: as §1

[3] = Cytotoxicity assay in Vero cells; format: cell-based; details: African green monkey, Vero cells
Procedure: as §1

Vero cells = test: Cytotoxicity assay in Vero cells; format: cell-based; details: Chlorocebus sabaeus; VERO cells, 100 μM
Procedure: as §1

[4] = tested on: HCV replicon RNA in Huh 7 Clone B cells; test: HCV replicon assay (replicon RNA, real time RT-PCR); format: cell-based; details: for DCt HCV / HCV (% inhibition of replicon RNA): five days
Procedure: Following five days incubation (37° C., 5% CO2), total cellular RNA was isolated by using versaGene RNA purification kit from Gentra. Replicon RNA and an internal control (TaqMan rRNA control reagents, Applied Biosystems) were amplified in a single step multiplex Real Time RT-PCR Assay. The antiviral effectiveness of the compounds was calculated by subtracting the threshold RT-PCR cycle of the test compound from the threshold RT-PCR cycle of the no-drug control (ΔCt HCV). A ΔCt of 3.3 equals a 1-log reduction (equal to 90% less starting material) in Replicon RNA levels. The cytotoxicity of the compounds was also calculated by using the ΔCt rRNA values. (2′-Me-C) was used as the control. To determine EC90 and IC50 values^2, ΔCt: values were first converted into fraction of starting material^3 and then were used to calculate the % inhibition.

[5] = biological target: T1, Elastase (Human Neutrophil) (Homo sapiens, UniProt P08246); test: Inhibition of human proteases: elastase; format: biochemical
T1 construct: purchased Athens Research and Technology 16-14-051200
Procedure: (§2) In an effort to circumvent similar toxicities, new protease inhibitors were evaluated for inhibition of a panel of important human proteases. The enzymes tested are Elastase (Neutrophil), Plasmin, Thrombin, and Cathepsin S.
Elastase (Human Neutrophil (Cat #16-14-051200 Athens Research and Technology, Athens Ga.)): Reactions were conducted in a sample volume of 100 μL per well in a clear 96 well plate. A 2× assay buffer was made containing 200 mM Tris-HCl (pH 7.5), 150 mM NaCl and 50% glycerol. For each sample 50 μL 2× assay buffer was added to each well. The substrate (MeOSuc-AAPV-pNA, Chromogenic Substrate, Cat #P-213, Enzo Life Sciences, Plymouth Meeting, Pa.; 50 mM stock in DMSO) was added to a final concentration of 1 mM. The drug dilutions were added (25 μL) at 4× concentrations in water. Finally, a mixture was made of 1 μL elastase and 22 μL water for each sample and 23 μL was added to each well. The samples were incubated at room temperature for 30 min. The absorbance at 405 nm was read on the Victor 3 plate reader. All samples were tested in duplicate. Results are shown as blank adjusted (no Elastase) percentages of maximum absorbance, which was given by a no inhibitor control.

Cathepsin G = Cathepsin G (Homo sapiens, UniProt P08311); test: Inhibition of human proteases: cathepsin G; format: biochemical
Chymo-trypsin = test: Inhibition of human proteases: chymotrypsin; format: biochemical
Kallikrein = test: Inhibition of human proteases: kallikrein; format: biochemical
Plasmin = biological target: T2, Plasmin (Homo sapiens, UniProt P00747); test: Inhibition of human proteases: plasmin; format: biochemical
T2 construct: purchased Anaspec
Procedure: as §2
Plasmin and Thrombin(Sensolyte RH110 Plasmin Activity Assay Kit and Sensolyte Thrombin Activity Assay Kit (Anaspec)): Reactions were conducted in a sample volume of 100 μL per well in a black 96 well plate. Protocol A was followed from the kit insert where the 2× assay buffer was diluted 1:1 with deionized water. Included in each assay were a positive control (diluted enzyme and no test compound), inhibitor control (contains diluted enzyme and plasmin inhibitor; component E from the kit or thrombin inhibitor; N-α-NAPAP synthetic inhibitor) and substrate control (assay buffer and substrate). Vehicle and autofluorescence controls were also performed. Drug dilutions were added (10 μL) at 10× concentrations in assay buffer. The enzyme was added at 40 μL/well at a concentration of 0.25 μg/mL (plasmin) and 1 μg/mL (thrombin) to all wells except the substrate control. Finally, 50 μL assay buffer containing substrate was added to each well. […] The fluorescence intensity was read on the Victor 3 plate reader at Ex/Em=490 nm/520 nm. […] Results are shown as substrate control adjusted percentages of maximum absorbance, which was given by the positive control.

[6] = biological target: Hepatitis C Virus NS3/4A protease A156T (Hepatitis C virus genotype 1b, UniProt O92972, A1182T); test: biochemical
[7] = tested on: Hepatitis C Virus NS3/4A protease A156T; test: biochemical; details: A156T vs Wild Type
[8] = biological target: Hepatitis C Virus NS3/4A protease D168A (Hepatitis C virus genotype 1b, UniProt O92972, D1194A); test: biochemical
[9] = tested on: Hepatitis C Virus NS3/4A protease D168A; test: biochemical; details: D168A vs Wild Type
[10] = Hepatitis C virus, HCV replicon, Huh 7 Clone B cells

Structure (SMILES): C=C[C@@H]1C[C@]1(NC(=O)[C@@H]1C[C@@H](OC(=O)N2Cc3cccc(F)c3C2)CN1C(=O)[C@@H](NC(=O)OC(C)(C)C)C(C)(C)C)C(=O)NS(=O)(=O)C1CC1 [Compound 10]
- IC50 [1]: > 100 µM
- inhibition at 100 µM [2]: 11%
- IC50 [3]: > 100 µM
- inhibition at 100 µM (Vero cells): -0.8%
- DCt HCV ([4]; Conc 0.01 μM): 1.16
- HCV (% inhibition of replicon RNA) ([4]; Conc 0.01 μM): 54.99
- DCt HCV ([4]; Conc 0.03 μM): 3.29
- HCV (% inhibition of replicon RNA) ([4]; Conc 0.03 μM): 89.67
- DCt HCV ([4]; Conc 0.1 μM): 6.05
- HCV (% inhibition of replicon RNA) ([4]; Conc 0.1 μM): 98.47
- DCt HCV ([4]; Conc 0.3 μM): 8.72
- HCV (% inhibition of replicon RNA) ([4]; Conc 0.3 μM): 99.76
- EC50 [4, 10]: 0.01 µM
- EC90 [4, 10]: 0.03 µM
- IC50 [5]: > 100 µM
- IC50 (Cathepsin G): > 100 µM
- IC50 (Chymo-trypsin): > 100 µM
- IC50 (Kallikrein): 47 µM
- IC50 (Plasmin): > 100 µM
- EC50 [6]: 0.033 µM
- EC90 ([6]; A156T, read-out: Anti-HCV protease activity EC90): 0.13 µM
- Fold Increase of EC50 [7]: 6.7
- Fold Increase of EC90 [7]: 4.4
- EC50 [8]: 0.57 µM
- EC90 ([8]; D168A, read-out: Anti-HCV protease activity EC90): 8.3 µM
- Fold Increase of EC50 [9]: 115.3
- Fold Increase of EC90 [9]: 278.5
